Test [1] deals with human SKM-1 acute myeloid leukemia cells. The test can be described thus: SKM-1 antiproliferation cell-based assay (ATPlite). The following applies: Homo sapiens. The method in brief:
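Log-phase cells in RPMI 1640/15% FBS were seeded at 34722 cells/mL and exposed for 4 days to nine-concentration DMSO serial dilutions in triplicate. Viability was read as ATP luminescence (ATPlite 1step), and IC50 values came from variable-slope non-linear regression.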
On the technique in general: ATP-based viability assays read luminescence as a measure of living cells.

Test [2] deals with T1, human BRD4 bromodomain II (Homo sapiens, UniProt O60885).
T1 construct: human BRD4 bromodomain II [based on Genbank NM_058243, residues 349-460]; host or cells: E. coli
The test can be described thus: Bromodomain binding assay (AlphaScreen), BRD4 BDII. In short, it runs like this: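 E. coli-expressed N-terminal His6-tagged human BRD4 BDII (residues 349-460) or BDI (residues 44-170) was preincubated 30 min at room temperature with compound (10-point, 3-fold) in pH 7.5 HEPES buffer, 1% DMSO. Displacement of biotinylated tetra-acetylated H4 1-21 peptide was read by AlphaScreen, and IC50 came from curve fitting.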
(In general: Bead proximity is the source of the signal in Alpha formats.)

Setting [3] is: SKM-1, 96 h, SKM-1 antiproliferation assay, 4 days, Table C2.
The mark [4] stands for this setting: AlphaScreen assay, Table C2, read-out: BRD4 BDII IC50.
Setting [5] is: SKM-1, SKM-1 antiproliferation assay.
[6] abbreviates: BRD4 BDII AlphaScreen assay, read-out: BRD4 BD2 IC50.

Where two headings read alike, the source gives them in different places.

`CN1CCN(c2ccc(-c3cccc(-c4cc(N5CCNCC5)c(=O)n(C)c4)c3O)cc2Cl)C1=O` [Example 342, 5-(3′-chloro-2-hydroxy-4′-(3-methyl-2-oxoimidazolidin-1-yl)-[1,1′-biphenyl]-3-yl)-1-methyl-3-(piperazin-1-yl)pyridin-2(1H)-one]: in test [1] (setting [3]), the GI50 lay in the range of 30 to 300 nM. Moreover, the IC50 in test [2] (setting [4]) was in the range of 1 to 10 nM.

Turning to `Cn1ccn(-c2ccc(-c3cc(F)cc(-c4cc(-c5ccn[nH]5)cc(N5CCNCC5)c4)c3O)cc2Cl)c1=O` [Example 568], in test [1] (setting [3]), the GI50 lay in the range of 0.3 to 30 nM. Besides, in test [2] (setting [4]), the IC50 was in the range of 0.01 to 1 nM.

As to `Cc1cc(-c2ccc(-n3ccn(C)c3=O)c(F)c2)c(O)c(-c2cnc(C)c(N3CCN(C(C)(C)C)CC3)c2)n1` [Example 1001, 1-(4-(5′-(4-(tert-butyl)piperazin-1-yl)-3-hydroxy-6,6′-dimethyl-[2,3′-bipyridin]-4-yl)-2-fluorophenyl)-3-methyl-1H-imidazol-2(3H)-one], the GI50 in test [1] (setting [5]) was in the range of 0.3 to 30 nM. Also, in test [2] (setting [6]), the IC50 was 1 to 10 nM.

Take `Cc1cc(-c2ccc(-n3ccn(C)c3=O)c(Cl)c2)c(O)c(-c2cc(N3CCNCC3)c3nccnc3c2)c1` [Example 562, 1-(3-chloro-2′-hydroxy-5′-methyl-3′-(8-(piperazin-1-yl)quinoxalin-6-yl)-[1,1′-biphenyl]-4-yl)-3-methyl-1H-imidazol-2(3H)-one]: the 50% growth inhibitory concentration (GI50) in test [1] (setting [3]) is 0.3 to 30 nM. Besides, the IC50 in test [2] (setting [4]) lay within 0.01 to 1 nM.

Molecule `CCC1(O)CCN(c2cc(-c3cc(F)cc(-c4ccc(-n5ccn(C)c5=O)c(Cl)c4)c3O)ccn2)C1` (centres unmarked) [Example 737, 1-(3-chloro-3′-(2-(3-ethyl-3-hydroxypyrrolidin-1-yl)pyridin-4-yl)-5′-fluoro-2′-hydroxy-[1,1′-biphenyl]-4-yl)-3-methyl-1H-imidazol-2(3H)-one] displayed a GI50 in test [1] (setting [3]) of 0.3 to 30 nM. Further, in test [2] (setting [4]), the IC50 lay in the range of 0.01 to 1 nM.

In the case of `Cn1ccn(-c2ccc(-c3cc(F)cc(-c4cc(N5CC6CC5CN6)c5cn[nH]c5c4)c3O)cc2Cl)c1=O` (centres unmarked) [Example 599, 1-(3′-(4-(2,5-diazabicyclo[2.2.1]heptan-2-yl)-1H-indazol-6-yl)-3-chloro-5′-fluoro-2′-hydroxy-[1,1′-biphenyl]-4-yl)-3-methyl-1H-imidazol-2(3H)-one], the GI50 in test [1] (setting [3]) lay within 30 to 300 nM. In test [2] (setting [4]), the IC50 fell in the range of 1 to 10 nM.

For the molecule `COc1ncc(-c2nc(C)cc(-c3ccc(-n4ccn(C)c4=O)c(Cl)c3)c2O)cc1N1CC[C@@]2(CCN2C(C)C)C1` [Example 1023, (S)-1-(2-chloro-4-(3-hydroxy-5′-(1-isopropyl-1,6-diazaspiro[3.4]octan-6-yl)-6'-methoxy-6-methyl-[2,3′-bipyridin]-4-yl)phenyl)-3-methyl-1,3-dihydro-2H-imidazol-2-one], the GI50 in test [1] (setting [5]) is 0.3 to 30 nM. The IC50 in test [2] (setting [6]) lay in the range of 0.01 to 1 nM.

In test [1] (setting [3]), `Cn1ccn(-c2ccc(-c3cc(F)cc(-c4ccnc(N5CCCC(C)(O)C5)c4)c3O)cc2Cl)c1=O` (centres unmarked) [Example 714, 1-(3-chloro-5′-fluoro-2′-hydroxy-3′-(2-(3-hydroxy-3-methylpiperidin-1-yl)pyridin-4-yl)-[1,1′-biphenyl]-4-yl)-3-methyl-1H-imidazol-2(3H)-one] showed a GI50 of 30 to 300 nM. Also, the IC50 in test [2] (setting [4]) was in the range of 0.01 to 1 nM.

The molecule `CC(=O)Nc1ccc(-c2cccc(-c3cccc(N4CC5CNC(C5)C4)c3)c2O)cc1F` (centres unmarked) [Example 206, N-(3″-(3,6-diazabicyclo[3.2.1]octan-3-yl)-3-fluoro-2′-hydroxy-[1,1′:3′,1″-terphenyl]-4-yl)acetamide] returned a GI50 in test [1] (setting [3]) of 30 to 300 nM. Further, in test [2] (setting [4]), the IC50 lay in the range of 1 to 10 nM.

In the case of `CN1CCN(c2ccc(-c3cc(F)cc(-c4cnc(CCO)c(N5CCNCC5)c4)c3O)cc2Cl)C1=O` [Example 428, 1-(3-chloro-5′-fluoro-2′-hydroxy-3′-(6-(2-hydroxyethyl)-5-(piperazin-1-yl)pyridin-3-yl)-[1,1′-biphenyl]-4-yl)-3-methylimidazolidin-2-one], the GI50 in test [1] (setting [3]) lay within 30 to 300 nM. Besides, in test [2] (setting [4]), the IC50 lay within 1 to 10 nM.

In turn, `CN1CCN(c2ccc(-c3cc(Cl)cc(-c4ccnc(N5CCNCC5)c4)c3O)cc2Cl)C1=O` [Example 295, 1-(3,5′-dichloro-2′-hydroxy-3′-(2-(piperazin-1-yl)pyridin-4-yl)-[1,1′-biphenyl]-4-yl)-3-methylimidazolidin-2-one] gave a GI50 in test [1] (setting [3]) of 30 to 300 nM. Further, the IC50 in test [2] (setting [4]) lay within 1 to 10 nM.

Molecule `Cn1ccn(-c2ccc(-c3cc(F)cc(-c4ccnc(N5CCN[C@H](C(C)(C)O)C5)c4)c3O)cc2Cl)c1=O` [Example 639, (S)-1-(3-chloro-5′-fluoro-2′-hydroxy-3′-(2-(3-(2-hydroxypropan-2-yl)piperazin-1-yl)pyridin-4-yl)-[1,1′-biphenyl]-4-yl)-3-methyl-1H-imidazol-2(3H)-one] showed a concentration for 50% growth inhibition (GI50) in test [1] (setting [3]) of 0.3 to 30 nM. In addition, the IC50 in test [2] (setting [4]) fell in the range of 0.01 to 1 nM.

`CC(=O)Nc1ccc(-c2cccc(-c3cc(F)nc(N4CCNCC4)c3)c2O)cc1F` [Example 291, N-(3-fluoro-3′-(2-fluoro-6-(piperazin-1-yl)pyridin-4-yl)-2′-hydroxy-[1,1′-biphenyl]-4-yl)acetamide] yielded a GI50 in test [1] (setting [3]) of 300 to 3000 nM. Also, the IC50 in test [2] (setting [4]) is 10 to 100 nM.

With `Cc1cc(-c2cc(F)cc(-c3ccnc(N4CCNCC4)c3)c2O)cc(Cl)c1N1CCCC1=O` [Example 386, 1-(3-chloro-5′-fluoro-2′-hydroxy-5-methyl-3′-(2-(piperazin-1-yl)pyridin-4-yl)-[1,1′-biphenyl]-4-yl)pyrrolidin-2-one], the GI50 in test [1] (setting [3]) fell in the range of 300 to 3000 nM. The IC50 in test [2] (setting [4]) is more than 100 nM.

`CC(=O)Nc1ccc(-c2cccc(-c3ccnc(N4CCN[C@H](C)C4)c3)c2O)cc1F` [Example 255, (R)-N-(3-fluoro-2′-hydroxy-3'-(2-(3-methylpiperazin-1-yl)pyridin-4-yl)-[1,1′-biphenyl]-4-yl)acetamide] gave a GI50 in test [1] (setting [3]) of 30 to 300 nM. In test [2] (setting [4]), the IC50 was in the range of 1 to 10 nM.

In turn, `CC(C)N1CCC12CCN(c1cccc(-c3cc(F)cc(-c4ccc(-n5ccn(C)c5=O)c(Cl)c4)c3O)c1)C2` (centres unmarked) [Example 892] came in with a concentration for 50% growth inhibition (GI50) in test [1] (setting [5]) of 0.3 to 30 nM. In test [2] (setting [6]), the concentration for half-maximal inhibition (IC50) lay in the range of 1 to 10 nM.

On to `Cn1ccn(-c2ccc(-c3cc(F)cc(-c4ccnc(N5CCC(C)(C(=O)O)C5)c4)c3O)cc2Cl)c1=O` (centres unmarked) [Example 769, 1-(4-(3′-chloro-5-fluoro-2-hydroxy-4′-(3-methyl-2-oxo-2,3-dihydro-1H-imidazol-1-yl)-[1,1′-biphenyl]-3-yl)pyridin-2-yl)-3-methylpyrrolidine-3-carboxylic acid], for which the GI50 in test [1] (setting [3]) lay in the range of 300 to 3000 nM. In addition, the IC50 in test [2] (setting [4]) is 1 to 10 nM.

`CN1CCN(c2ccc(-c3cc(F)cc(-c4ccnc(NCCN)c4)c3O)cc2Cl)C1=O` [Example 363, 1-(3′-(2-((2-aminoethyl)amino)pyridin-4-yl)-3-chloro-5′-fluoro-2′-hydroxy-[1,1′-biphenyl]-4-yl)-3-methylimidazolidin-2-one] came in with a GI50 in test [1] (setting [3]) of 300 to 3000 nM. Moreover, the IC50 in test [2] (setting [4]) lay within 10 to 100 nM.

In the case of `Cn1ccn(-c2ccc(-c3cc(F)cc(-c4ccnc(N5CCN(C6CCOCC6)CC5)c4)c3O)cc2Cl)c1=O` [Example 634, 1-(3-chloro-5′-fluoro-2′-hydroxy-3′-(2-(4-(tetrahydro-2H-pyran-4-yl)piperazin-1-yl)pyridin-4-yl)-[1,1′-biphenyl]-4-yl)-3-methyl-1H-imidazol-2(3H)-one], the GI50 in test [1] (setting [3]) is 0.3 to 30 nM. Moreover, the IC50 in test [2] (setting [4]) fell in the range of 0.01 to 1 nM.

`Cn1ccn(-c2ccc(-c3cc(F)cc(-c4ccnc(N5CCS(=N)(=O)CC5)c4)c3O)cc2Cl)c1=O` [Example 915, 1-(3-chloro-5′-fluoro-2′-hydroxy-3′-(2-(1-imino-1-oxidothiomorpholino)pyridin-4-yl)-[1,1′-biphenyl]-4-yl)-3-methyl-1H-imidazol-2(3H)-one] registered a GI50 in test [1] (setting [5]) of 30 to 300 nM. Besides, the IC50 in test [2] (setting [6]) lay within 0.01 to 1 nM.

For `Cn1ccn(-c2ccc(-c3cc(F)cc(-c4ccc(F)c(N5CC[C@@](C)(O)C5)c4)c3O)cc2Cl)c1=O` [Example 775, (R)-1-(3-chloro-4″,5′-difluoro-2′-hydroxy-3″-(3-hydroxy-3-methylpyrrolidin-1-yl)-[1,1′:3′,1″-terphenyl]-4-yl)-3-methyl-1H-imidazol-2(3H)-one], in test [1] (setting [3]), the GI50 was in the range of 30 to 300 nM. Also, the IC50 in test [2] (setting [4]) lay in the range of 1 to 10 nM.

On to `COc1cc(-c2cc(F)cc(-c3ccc(-n4ccn(C)c4=O)c(Cl)c3)c2O)cc(N2CCN(C(C)(C)C)CC2)n1` [Example 732, 1-(3′-(2-(4-(tert-butyl)piperazin-1-yl)-6-methoxypyridin-4-yl)-3-chloro-5′-fluoro-2′-hydroxy-[1,1′-biphenyl]-4-yl)-3-methyl-1H-imidazol-2(3H)-one], for which the GI50 in test [1] (setting [3]) lay in the range of 0.3 to 30 nM. The IC50 in test [2] (setting [4]) lay within 1 to 10 nM.

In the case of `COCCOc1ncc(-c2cc(F)cc(-c3ccc(N4CCN(C)C4=O)c(Cl)c3)c2O)cc1N1CCNCC1` [Example 393, 1-(3-chloro-5′-fluoro-2′-hydroxy-3′-(6-(2-methoxyethoxy)-5-(piperazin-1-yl)pyridin-3-yl)-[1,1′-biphenyl]-4-yl)-3-methylimidazolidin-2-one], the GI50 in test [1] (setting [3]) was 30 to 300 nM. The IC50 in test [2] (setting [4]) fell in the range of 1 to 10 nM.

For `C[C@@H]1CN(c2cncc(-c3cc(F)cc(-c4ccc(-n5ccn(C)c5=O)c(Cl)c4)c3O)c2)CCN1C` [Example 474, (R)-1-(3-chloro-3′-(5-(3,4-dimethylpiperazin-1-yl)pyridin-3-yl)-5′-fluoro-2′-hydroxy-[1,1′-biphenyl]-4-yl)-3-methyl-1H-imidazol-2(3H)-one], the GI50 in test [1] (setting [3]) was in the range of 0.3 to 30 nM. Also, the 50% inhibitory concentration (IC50) in test [2] (setting [4]) was in the range of 0.01 to 1 nM.

On to `Cn1ccn(-c2ccc(-c3cc(F)cc(-c4ccccc4CN4CCNCC4)c3O)cc2Cl)c1=O` [Example 889], for which the GI50 in test [1] (setting [5]) was 300 to 3000 nM. Besides, the IC50 in test [2] (setting [6]) is more than 100 nM.

For orientation: GI50 means the concentration at which growth is held to half of that of the control. A word on the IC50: it is the midpoint of a concentration-inhibition curve.

Source of the values: patent publication US20250179059A1 (The Regents of the University of California, priority 2021, published 2025).
